According to ChEMBL document CHEMBL3421536, “Identification of 4-(4-nitro-2-phenethoxyphenyl)pyridine as a promising new lead for discovering inhibitors of both human and rat 11β-Hydroxylase” (Eur J Med Chem, 2015):

Experiments:
Aromatase = molecular target: T1, Aromatase (Homo sapiens, UniProt P11511); assay: Inhibition of human CYP19 expressed in hamster fibroblast using 500 nM [1beta-3H] androstenedione as substrate by HPLC analysis
T1 sequence (P11511 whole entry): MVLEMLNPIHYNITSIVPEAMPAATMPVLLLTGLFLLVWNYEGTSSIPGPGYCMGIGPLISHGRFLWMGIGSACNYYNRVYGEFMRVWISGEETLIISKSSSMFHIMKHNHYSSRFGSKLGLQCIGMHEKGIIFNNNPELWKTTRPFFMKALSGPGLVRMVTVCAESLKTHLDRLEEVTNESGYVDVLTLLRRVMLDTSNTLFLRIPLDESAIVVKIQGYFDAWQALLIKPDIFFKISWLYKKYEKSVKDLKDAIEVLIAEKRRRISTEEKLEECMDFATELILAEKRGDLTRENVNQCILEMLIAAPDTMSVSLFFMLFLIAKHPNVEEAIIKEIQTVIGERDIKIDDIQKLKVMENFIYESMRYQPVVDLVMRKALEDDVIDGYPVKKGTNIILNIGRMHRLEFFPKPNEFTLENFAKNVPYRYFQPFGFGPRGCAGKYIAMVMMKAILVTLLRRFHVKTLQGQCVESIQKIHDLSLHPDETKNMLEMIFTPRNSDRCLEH

[1] = molecular target: T2, Cytochrome P450 11B1, mitochondrial (Homo sapiens, UniProt P15538); assay: Inhibition of human CYP11B1 expressed in hamster fibroblast using 100 nM [3H]-11-deoxycorticosterone as substrate after 25 mins by HPLC analysis
T2 sequence (P15538 whole entry): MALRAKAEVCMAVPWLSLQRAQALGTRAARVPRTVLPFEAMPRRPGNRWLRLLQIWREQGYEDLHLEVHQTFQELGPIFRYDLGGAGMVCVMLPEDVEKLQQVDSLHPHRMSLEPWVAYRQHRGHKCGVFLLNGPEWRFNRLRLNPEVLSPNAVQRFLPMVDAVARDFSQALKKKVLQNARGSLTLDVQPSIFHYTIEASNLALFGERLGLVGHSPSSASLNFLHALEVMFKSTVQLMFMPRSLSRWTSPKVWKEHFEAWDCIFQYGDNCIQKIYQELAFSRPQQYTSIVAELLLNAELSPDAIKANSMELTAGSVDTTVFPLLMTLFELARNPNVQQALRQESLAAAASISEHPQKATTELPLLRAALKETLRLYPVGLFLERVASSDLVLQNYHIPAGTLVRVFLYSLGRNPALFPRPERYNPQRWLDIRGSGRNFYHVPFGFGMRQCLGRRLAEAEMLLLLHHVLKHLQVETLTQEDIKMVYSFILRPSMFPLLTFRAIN

Homo sapiens = species: Homo sapiens; assay: Selectivity index, ratio of IC50 for human CYP11B2 to IC50 for human CYP11B1
[2] = Retention time of the compound by HPLC analysis; format: physicochemical
[3] = molecular target: T3, Cytochrome P450 11B2, mitochondrial (Homo sapiens, UniProt P19099); assay: Inhibition of human CYP11B2 expressed in hamster fibroblast using 100 nM [3H]-11-deoxycorticosterone as substrate after 45 mins by HPLC analysis
T3 sequence (P19099 whole entry): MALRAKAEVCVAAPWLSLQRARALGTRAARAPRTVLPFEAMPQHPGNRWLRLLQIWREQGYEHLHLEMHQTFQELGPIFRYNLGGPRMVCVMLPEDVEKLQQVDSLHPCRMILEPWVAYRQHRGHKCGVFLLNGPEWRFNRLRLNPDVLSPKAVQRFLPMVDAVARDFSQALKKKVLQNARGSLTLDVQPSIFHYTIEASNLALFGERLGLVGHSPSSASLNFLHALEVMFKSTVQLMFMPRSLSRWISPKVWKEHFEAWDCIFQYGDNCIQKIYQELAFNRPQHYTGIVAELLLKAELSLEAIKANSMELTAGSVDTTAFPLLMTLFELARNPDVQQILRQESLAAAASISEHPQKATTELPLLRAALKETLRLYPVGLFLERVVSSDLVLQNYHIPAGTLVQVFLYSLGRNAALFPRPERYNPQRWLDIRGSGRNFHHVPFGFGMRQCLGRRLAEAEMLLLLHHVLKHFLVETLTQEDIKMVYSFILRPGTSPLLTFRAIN

[4] = molecular target: T4, Cytochrome P450 11B1, mitochondrial (Rattus norvegicus, UniProt P15393); assay: Inhibition of rat CYP11B1 expressed in hamster fibroblast using 500 nM [3H]-11-deoxycorticosterone as substrate after 7 hrs by HPLC analysis
T4 sequence (P15393 whole entry): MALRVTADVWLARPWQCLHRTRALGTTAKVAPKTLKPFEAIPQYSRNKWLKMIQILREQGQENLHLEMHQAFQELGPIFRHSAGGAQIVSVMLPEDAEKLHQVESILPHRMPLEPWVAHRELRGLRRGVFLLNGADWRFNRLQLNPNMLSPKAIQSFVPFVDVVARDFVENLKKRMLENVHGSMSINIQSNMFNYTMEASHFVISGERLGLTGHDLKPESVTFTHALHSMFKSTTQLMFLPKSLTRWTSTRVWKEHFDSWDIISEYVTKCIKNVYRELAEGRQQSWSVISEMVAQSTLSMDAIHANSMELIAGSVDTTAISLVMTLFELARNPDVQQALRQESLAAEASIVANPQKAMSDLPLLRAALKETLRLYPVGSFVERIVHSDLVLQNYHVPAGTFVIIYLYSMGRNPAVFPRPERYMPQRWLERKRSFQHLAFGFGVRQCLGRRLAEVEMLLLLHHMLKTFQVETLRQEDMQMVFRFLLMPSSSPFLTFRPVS

| IC50 (Aromatase) [nM] | IC50 [1] [nM] | Selectivity Index (Homo sapiens) | Retention_time [2] [min] | IC50 [3] [nM] | IC50 [4] [nM] | Compound |
| --- | --- | --- | --- | --- | --- | --- |
| 128 | 182 | 1.3 | 9.7 | 246 | 706 | O=[N+]([O-])c1ccc(Cc2cccnc2)c(OCCc2ccccc2)c1 |
|  | 1210 | 0.6 | 8.67 | 756 |  | O=C(Nc1ccc(-c2cccnc2)c(OCc2ccccc2)c1)c1ccc(F)cc1 |
|  | 2490 | 0.1 |  |  |  | COc1cc2c(cc1-c1cccnc1)CCC(=O)N2 |
| 447 | 540 | 0.5 | 5.63 | 260 |  | Nc1ccc(-c2cccnc2)c(OCc2ccccc2)c1 |
|  | 51 | 1.6 | 9.57 | 84 |  | Fc1ccc(-c2cccnc2)c(OCCc2ccccc2)c1 |
| 137 | 6 | 2.5 | 9.28 | 15 | 2080 | O=[N+]([O-])c1ccc(-c2cccnc2)c(OCCCc2ccccc2)c1 |
| 2090 | 26 | 0.9 | 10.13 | 24 |  | FC(F)(F)c1ccc(-c2ccncc2)c(OCCc2ccccc2)c1 |
|  | 2670 | 0.9 | 7.91 | 2440 |  | c1ccc(CCOc2cccnc2-c2ccncc2)cc1 |
|  | 594 | 0.5 | 7.56 | 299 |  | CN(C)C(=O)c1ccc(-c2cccnc2)c(OCCc2ccccc2)c1 |
| 146 | 23 | 0.7 | 9.07 | 17 | 1490 | O=[N+]([O-])c1ccc(-c2cccnc2)c(OCc2ccccc2)c1 |
| 75 | 13 | 4.1 | 9.13 | 53 | 1310 | O=[N+]([O-])c1ccc(-c2cccnc2)c(OCCc2ccccc2)c1 |
| 4990 | 8 | 2.4 | 9.33 | 18 | 370 | O=[N+]([O-])c1ccc(-c2ccncc2)c(OCCCc2ccccc2)c1 |
|  | 812 | 1.2 | 10.3 | 945 |  | FC(F)(F)c1ccc(-c2cccnc2)c(OCCc2ccccc2)c1 |
| 2420 | 50 | 1.7 | 9.02 | 87 | 648 | O=[N+]([O-])c1ccc(-c2ccncc2)c(OCc2ccccc2)c1 |
|  | 46 | 1.5 | 9.2 | 70 |  | COc1ccc(-c2ccncc2)c(OCCc2ccccc2)c1 |
| 165 | 38 | 1.6 | 8.85 | 63 | 543 | N#Cc1ccc(-c2cccnc2)c(OCCc2ccccc2)c1 |
|  | 1200 | 0.6 | 9.57 | 714 |  | O=[N+]([O-])c1ccc(-c2ccncc2)cc1OCCc1ccccc1 |
|  | 183 | 1.3 | 9.07 | 230 |  | COc1ccc(-c2cccnc2)c(OCCc2ccccc2)c1 |
|  |  | 0.5 |  |  | 1500 | O=C1CCc2cc(-c3cccnc3)c(OCc3ccccc3)cc2N1 |
| 157 | 6 | 2.7 | 9.55 | 16 | 2850 | O=[N+]([O-])c1ccc(Cc2ccncc2)c(OCCc2ccccc2)c1 |
| > 5000 |  | 13.3 |  |  | > 10000 | c1ccc(-c2ccc(Cn3ccnc3)cn2)cc1 |
|  | 1660 | 0.9 | 7.73 | 1450 |  | c1ccc(CCOc2cccnc2-c2cccnc2)cc1 |
|  | 508 | 0.9 | 9.8 | 447 |  | O=[N+]([O-])c1ccc(-c2cccnc2)cc1OCCc1ccccc1 |
| 1890 | 2 | 3.5 | 9.21 | 7 | 163 | O=[N+]([O-])c1ccc(-c2ccncc2)c(OCCc2ccccc2)c1 |
| > 5000 |  | 15.1 |  |  |  | Cc1cncc(Cc2ccc(-c3ccccc3)nc2)c1 |
|  | 60 | 1.2 | 9.32 | 74 |  | Fc1ccc(-c2ccncc2)c(OCCc2ccccc2)c1 |
|  | 279 | 2.3 | 7.25 | 643 |  | CC(=O)Nc1ccc(-c2cccnc2)c(OCc2ccccc2)c1 |
| > 5000 |  |  |  |  | 4610 | CC(C)(C(=O)c1cccnc1)c1cccnc1 [METYRAPONE] |
| 1550 | 12 | 1.9 | 8.71 | 23 | 441 | N#Cc1ccc(-c2ccncc2)c(OCCc2ccccc2)c1 |
|  | 1150 | 0.7 | 7.51 | 816 |  | CN(C)C(=O)c1ccc(-c2ccncc2)c(OCCc2ccccc2)c1 |
